Source: patent US20130149399A1, “SKIN TEMPERATURE ELEVATING AGENT, AND COSMETIC COMPOSITION, FOOD AND SUNDRY ARTICLE CONTAINING THE SAME” (SHISEIDO COMPANY ,LTD., priority 2010, published 2013)

Test: Test method of measuring skin temperature when smelling the aroma of the test sample
Format: in vivo, human
Settings: females in their 20's, aroma smelled from soaked cotton, chest skin temperature as reference, 25 °C, humidity 45%; for effect of the aroma on the skin temperature of the cheek (change level with aroma minus change level with no aroma): samples 0.05-0.1 mass % in triethyl citrate or ethanol, FIG. 1
Procedure: The present invention will be explained below in more detail with reference to examples. Test samples were prepared which were a dilution of an extract of Japanese peppermint by triethyl citrate to a concentration of 0.05 mass %, a dilution of an extract of juniper berry by triethyl citrate to a concentration of 0.1 mass %, a dilution of an extract of […] by triethyl citrate to a concentration of 0.05 mass %, a dilution of dihydro-β-ionol by ethanol to a concentration of 0.1 mass %, a dilution of geraniol by ethanol to a concentration of 0.1 mass %, and a dilution of 4-methoxystyrene by ethanol to a concentration of 0.5 mass %, and how the aromas of those test samples influenced a skin temperature was tested. In this example, test subjects were females in their 20's. Five test subjects for the extract of Japanese peppermint, seven test subjects for the extract of juniper berry, three test subjects for the extract of […] test subjects for dihydro-β-ionol, five test subjects for geraniol, and seven test subjects for 4-methoxystyrene participated in the tests. The test content was explained in advance to the test subjects, and the participation in the test was agreed in writing. The tests were carried out in a room at a constant temperature set to 25 ° C. and a constant humidity set to 45%. Skin temperature sensors were attached to a cheek of the test subject, a hand fingertip (middle finger), and a chest, and connected to a temperature monitor to successively measure the skin temperature. […] Skin temperature change levels of a cheek and those of a hand fingertip between when an aroma was smelled and when no aroma was smelled were compared with each other, and an effect of the aroma of the test sample to the skin temperature was evaluated. […] When this value is a positive one, it is determined that a skin temperature is raised and when this value is a negative one, it is determined that a skin temperature is lowered.

In the case of `C=Cc1ccc(OC)cc1` [4-methoxystyrene], the “effect of the aroma on the skin temperature of the hand fingertip (change level with aroma minus change level with no aroma)” value (middle finger, samples 0.05-0.5 mass % in triethyl citrate or ethanol, FIG. 2) is reported as “effect of raising the skin temperature of the hand fingertip”.

With `CC(C)=CCC/C(C)=C/CO` [geraniol, Geraniol] the “effect of the aroma on the skin temperature of the cheek (change level with aroma minus change level with no aroma)” value was “effect of raising the skin temperature of the cheek”.

With `CC1=C(CCC(C)O)C(C)(C)CCC1` (stereo not drawn) [dihydro-β-ionol, Dihydro-β-ionol] the “effect of the aroma on the skin temperature of the cheek (change level with aroma minus change level with no aroma)” value was “effect of raising the skin temperature of the cheek”.
